Data from patent publication US11400103B2, “Methods of preventing platelet activation” (Vanderbilt University, priority 2015, dated 2022).
“Also recorded” adds a separate entry of the source.

Columns and labels:
[1] = tested on: human washed platelets; assay: Dilysyl-MDA crosslinks in arachidonic acid-activated human washed platelets (LC/MS/MS); assay type: cell-based; settings: preincubation 40 min (ozagrel 100 μM, aspirin 100 μM, SA or 3-MoSA 1.5 mM), then 5 μM arachidonic acid 2 h
Procedure: (§1) In vitro platelet activation: Blood obtained from healthy volunteers was collected into vacuum tubes containing citrate, from a peripheral vein using a 21-gauge needle, and washed platelets were prepared as previously described (7). The platelets were counted with a Coulter counter and diluted with resuspension buffer to a final concentration of […], and aliquoted in volumes corresponding to 500 μl. The aliquots were preincubated for 40 min at room temperature with vehicle, the thromboxane synthase inhibitor ozagrel (100 μM), aspirin (100 μM) or the MDA scavengers, SA (1.5 mM) or 3-MoSA (1.5 mM). Next, arachidonic acid (5 μM) was added and the platelets were incubated for an additional 2 h at room temperature. The reactions were stopped by adding indomethacin (100 μM) and the aldehyde scavenger pyridoxamine (1 mM) for 30 min at 4° C., to inhibit all residual COX-1 activity and to prevent formation of MDA adducts on proteins during the purification process, respectively. An aliquot (5 μl) of sample was used for protein estimations using a BCA assay.
Analysis of Protease-Derived Lysyl-MDA-Lysyl Crosslinks (Dilysyl-MDA Crosslinks) in Washed Platelets by LC/ESI/MS/MS. Samples (around 3 mg of protein) were digested with proteases as previously described for lysyl-lactam adducts (7). In summary, the samples were subsequently heated at 95° C. and allowed to cool at room temperature, before step digestion with pronase (1 mg) at 37° C. for 24 h. Pronase was inactivated by heating samples at 95° C. for 10 min and then cooled to room temperature. Then, 1 μl of […] aminopeptidase was added for every 1 mg of sample protein and incubated at 37° C. for 24 h. Five nanograms of ^13C6-dilysyl-MDA crosslink standard were added to each platelet sample and dilysyl-MDA crosslinks were purified using Oasis cartridge as described above in the section for the preparation of dilysyl-MDA Crosslink standard. The eluate was dried under nitrogen flow to a volume of 100 μl, diluted up to 1 ml with a 0.1% formic acid aqueous solution, and filtered using a 0.22 µm nylon Spin-x centrifuge tube spun at 6,000 rpm for 5 min. Samples were purified by HPLC through the Thermo Scientific Aquasil C18 column. The fractions containing the radioactivity were pooled, concentrated in Oasis HLB cartridge, and then dried under nitrogen to a final volume of 40 μl.
Pooled HPLC fractions concentrated using Oasis were analyzed by LC/MS/MS using an YMC OD-AQ column. […] The gradient was as follows: 0-5 min 100-0% A, 5-7 min 0% A, 7-9 min 0-100% A, 9-15 min 100% A, with a flow rate of 0.2 ml/min. The mass spectrometer was operated in the positive ion mode and the electrospray needle was maintained at 4000 V. Nitrogen was used for both the sheath and auxiliary gas at pressures of 30 and 5 arbitrary units, respectively. […] These settings were used during all experiments, including the validation procedure.

[2] = tested on: RAW264.7 cells; assay: LG-lysyl adduct formation on histones in RAW264.7 cells; assay type: cell-based; settings: 500 μM scavenger 45 min, 20 μM AA 1 h, COX-2 stimulated cells
Procedure: (A). Scavengers were screened in RAW264.7 cells for the ability to decrease LG adduct formation on histones. Scavengers used were glucosamine (GA), 3-methoxysalicylamine (3-MoSA), pentylpyridoxamine (PPM), and 5-ethylsalicylamine (EtSA). Cells were stimulated to express COX-2, pretreated 45 min. with 500 μM scavenger or vehicle (H2O), and given 20 μM AA for 1 h before lysing and extracting histones. Histone proteins were analyzed by LC/ESI/MS/MS for LG-lysyl lactam adduct, n=2.

[3] = tested on: Human platelets; assay: Inhibition of formation of LG adducts in platelets; assay type: cell-based; settings: 1 mM compound, 10 μM dazoxiben 30 min, arachidonic acid 2 h
Procedure: Human platelets were pre-incubated with 10 μM dazoxiben, a thromboxane synthase inhibitor, and 1 mM of the specified compound or vehicle (control) for 30 min. After incubation, […] arachidonic acid was added for 2 h, and then the proteins were precipitated and digested to single amino acids by step-digestion with proteases. The daughter ions at m/z 332.1 and 84.1 for the lactam were monitored. Values are means±SD (n=9)*P<0.001 vs. control, +P<0.001 vs. 100 μM concentration.

[4] = Rate of reactivity of the scavengers with MDA in vitro (HPLC); settings: for formation of MDA adduct of the scavenger relative to MDA-lysine adduct: 37° C., 4 h, MDA ratio 1:1, 0.1 M phosphate pH 7.4, HPLC; for lysine-MDA adducts formation: Lysine and MDA incubated at 37° C. for 4 h in presence of scavenger
Procedure: Determination of the rate of reactivity of the scavengers with MDA in vitro. N^α-Acetyllysine with or without SA, 3-MoSA or 4-HoBA was incubated at 37° C. in the presence of MDA (ratio 1:1) in 0.1 M phosphate, pH 7.4. After 4 h, 10 μl aliquots were diluted to 200 μl with solvent A and analyzed by HPLC. Solvent A consisted to 20% methanol/0.2% formic acid and solvent B was 99.8% methanol/0.2% formic acid. The gradient was as follows: 0-1 min 100% A, 1-7 min 100-0% A, 7-14 min […]. Phenomenex Kinetex column at a flow rate of 0.2 ml/min and the absorbance at 280 nm were used.

[5] = tested on: COX-1; assay: T×B2 in washed platelets by GC/MS as a measure of COX activity; assay type: cell-based, human; settings: 5 μM arachidonic acid 2 h; for inhibition at 100 µM: Homo sapiens, Platelet, read-out: inhibition of T×B2 levels; for effect on T×B2 levels: scavenger 1.5 mM
Procedure: as §1
(§2) GC/NICI/MS quantification of thromboxane B2. Serum T×B2 (sT×B2) was measured as an indicator of inhibition of platelet COX activity from blood drawn into non-citrated vacuum tubes. Serum from patients was prepared by incubating the blood at 37° C. for 45 min and then centrifuged at 3,200×g for 15 min. Serum was separated and stored at −80° C. until analysis. For ex vivo experiment, 50 μl of washed platelets were used. sT×B2 was assayed by stable isotope dilution gas chromatography/mass spectrometry (GC/MS) with selective ion monitoring as described previously (10).

[6] = tested on: human washed platelets; assay: LC/MS/MS quantification of scavenger-MDA adducts from washed platelets; assay type: cell-based; settings: 1.5 mM scavenger 40 min, then 5 μM arachidonic acid 2 h
Procedure: LC/MS/MS quantification of scavengers-MDA adducts from washed platelet. Washed platelets were activated as described above in the section “ex vivo activation”. The scavenger-MDA adducts were extracted three times with 500 μl of ethyl acetate from 50 μl of the reaction mixture, as described above. The extract was dried down, re-suspended in 100 μl of ACN-water (1:1, v/v), vortexed, and filtered through a 0.22-um spin X column. The reactions were analyzed by LC/MS/MS using the column and gradient as described above. The mass spectrometer was operated in the positive ion mode and the spray voltage was maintained at 5000 V. Nitrogen was used for the sheath gas and auxiliary gas at pressures of 30 and 5 arbitrary units, respectively. The optimized skimmer offset was set at 10, capillary temperature was 300° C. and the tube lens voltage for both compounds was set to 49. Selected reaction monitoring of specific transition ions for the precursor ions at m/z 178→106 (SA-MDA adduct) or m/z 208→136 (3-MoSA-MDA adduct) at −15 eV were used.

[7] = tested on: platelets of patients with SCD; assay: Platelet dilysyl-MDA crosslinks in patients with sickle cell disease; assay type: in vivo, human
Source text: Sample collection. Written informed consent was obtained from study participants and human blood was obtained following a protocol approved by the Institutional Review Board of Vanderbilt University. Samples were obtained from three different populations: healthy subjects who had no component of the MetSyn or SCD, patients with MetSyn and patients with SCD. Patients with MetSyn were 35-75 year old and fit the MetSyn criteria in accord with the American Heart Association/National Heart, Lung, and Blood Institute criteria (6). Patients with SCD were 25-50 year old and were homozygous sickle (SS) or compound heterozygote with beta-thalassemia (Sβ-thal) phenotype. […]
In vivo platelet activation: Metabolic Syndrome and Sickle Cell patients. […] Accordingly, the levels of dilysyl-MDA crosslinks in platelets were measured in two conditions in which there is evidence of in vivo platelet activation, metabolic syndrome (MetSyn) (8, 9) and sickle cell disease (SCD) (8, 9), and compared to the levels in platelets from healthy subjects isolated from blood collected in the same conditions. […]
Analysis of Protease-Derived Lysyl-MDA-Lysyl Crosslinks (Dilysyl-MDA Crosslinks) in Washed Platelets by LC/ESI/MS/MS. […] The fractions containing the radioactivity were pooled, concentrated in Oasis HLB cartridge, and then dried under nitrogen to a final volume of 40 μl. […]

[8] = tested on: platelet COX1; assay: Serum T×B2 in patients with sickle cell disease (GC/MS); assay type: in vivo, human
Procedure: as §2

[9] = tested on: Human platelets; settings: previously shown (ref 4); cited from earlier work

## CCc1ccc(O)c(CN)c1 [EtSA, 5-ethylsalicylamine]
[1]
  levels of dilysyl-MDA crosslinks after platelet activation: as effective as scavengers as was SA; also recorded: prevent formation of MDA adducts of platelet proteins
[2]
  effect on LG adducts of histones (nucleus): blocks LG-lysyl adduct formation on histones
[2]; listed as 5-ethylsalicylamine
  effect on LG adducts of histones (nucleus): effective scavenger

## pentylpyridoxamine [reference compound]
[3]
  scavenging of LG adducts in the platelet: effective scavenger
[2]
  effect on LG adducts of histones (nucleus): only partially effective

## NCc1ccc(O)cc1 [4-HoBA, 4-hydroxybenzylamine, reference compound]
[4]
  formation of MDA adduct of the scavenger relative to MDA-lysine adduct: 0.6 fold

## O=C(O)/C=C/c1ccc(Cn2ccnc2)cc1 [ozagrel, reference compound]
[1]
  levels of dilysyl-MDA crosslinks after platelet activation: reduced levels of the dilysysl-MDA crosslink to baseline levels; also recorded: reduce the dilysyl-MDA crosslinks to the levels in non-activated platelets
[5]
  inhibition at 100 µM: 96%

## CC(=O)O.COc1cccc(CN)c1O [3-MoSA, 3-methoxysalicylamine acetate]
[1]; acetate
  levels of dilysyl-MDA crosslinks after platelet activation: decreased levels of dilysysl-MDA crosslinks to baseline levels; also recorded: prevent formation of MDA adducts of platelet proteins
[5]
  effect on T×B2 levels: neither SA nor 3-MoSA significantly affected T×B2 levels
[4]
  formation of MDA adduct of the scavenger relative to MDA-lysine adduct: 15.1 fold
  lysine-MDA adducts formation: inhibited
[6]
  formation of scavenger-MDA adducts in activated platelets: concomitant appearance of the equivalent scavenger-MDA adduct
[3]
  scavenging of LG adducts in the platelet: active
[2]
  effect on LG adducts of histones (nucleus): inactive

## Cc1ccc(O)c(CN)c1 [MeSA, 5-methylsalicylamine]
[1]
  levels of dilysyl-MDA crosslinks after platelet activation: as effective as scavengers as was SA; also recorded: prevent formation of MDA adducts of platelet proteins

## O=C(c1ccccc1)c1ccc2n1CCC2C(=O)O (stereo not shown) [ketorolac]
[7]; SCD patients treated with ketorolac during admission for vaso-occlusive crisis
  levels of platelet dilysyl-MDA crosslinks: 3.15±1.18 ng/mg of protein
[7]; therapeutic use in SCD patients
  reduction of platelet dilysyl-MDA crosslinks: reduction of dilysyl-MDA crosslinks to the level found in normal platelets
[8]; SCD patients during ketorolac treatment (from 219.7±183.1 ng/mL)
  levels of serum T×B2: 68.9 ± 127.7 ng/mL
[8]; SCD patients, therapeutic use
  reduction in serum T×B2: 69%

## CC(=O)O.NCc1ccccc1O [SA, Salicylamine acetate]
[1]; acetate
  levels of dilysyl-MDA crosslinks after platelet activation: decreased levels of dilysysl-MDA crosslinks to baseline levels; also recorded: prevent formation of MDA adducts of platelet proteins
[5]
  effect on T×B2 levels: neither SA nor 3-MoSA significantly affected T×B2 levels
[4]
  formation of MDA adduct of the scavenger relative to MDA-lysine adduct: 9.2 fold
  lysine-MDA adducts formation: inhibited
[6]
  formation of scavenger-MDA adducts in activated platelets: concomitant appearance of the equivalent scavenger-MDA adduct
[9]
  formation of levuglandinyl adducts of platelet proteins: prevent formation of levuglandinyl adducts of platelet proteins

## CC(=O)Oc1ccccc1C(=O)O [aspirin, acetylsalicylic acid, reference compound]
[1]
  levels of dilysyl-MDA crosslinks after platelet activation: reduced levels of the dilysysl-MDA crosslink to baseline levels; also recorded: reduce the dilysyl-MDA crosslinks to the levels in non-activated platelets
[5]
  inhibition at 100 µM: 96%
